Biological target: T1, Human TRPA1 (Homo sapiens, UniProt O75762)
T1 construct: expressed in transfected cells; host or cells: CHO cells
Assay: 45Calcium uptake assay: inhibition of AITC induced cellular uptake of radioactive calcium
Format: cell-based
Conditions: AITC (30 μM) induced 45Ca uptake, Human TRPA1 expressing CHO cells; for inhibition at 1 µM: 1.0 μM test compound, read-out: Percentage inhibition at 1.0 μM; for inhibition at 10 µM: 10.0 μM test compound, read-out: Percentage inhibition at 10.0 μM; for IC50: read-out: Human IC50 value (range)
Excerpt: The illustrative examples of the present invention are screened for TRPA1 activity according to a modified procedure described in (a) Tóth, A. et al., Life Sciences, 2003, 73, 487-498. (b) McNamara C, R. et al., Proc. Natl. Acad. Sci. U.S.A., 2007, 104, 13525-13530. The screening of the compounds can be carried out by other methods and procedures known to persons skilled in the art.
Screening for TRPA1 Antagonist Using the ^45Calcium Uptake Assay
The inhibition of TRPA1 receptor activation was measured as inhibition of allyl isothiocyanate (AITC) induced cellular uptake of radioactive calcium. Test compounds were dissolved in DMSO to prepare 10 mM stock solution and then diluted using plain medium with 0.1% BSA and 1.8 mM CaCl2 to get desired concentration. Final concentration of DMSO in the reaction was 0.5% (v/v). Human TRPA1 expressing CHO cells were grown in F-12 DMEM medium with 10% FBS, 1% penicillin-streptomycin solution, 400 μg/ml of G-418. Cells were seeded 24 h prior to the assay in 96 well plates so as to get ˜50,000 cells per well on the day of experiment. Cells were treated with test compounds for 10 min followed by addition of AITC at a final concentration of 30 μM and 5 μCi/ml ^45Ca^+2 for 3 min. Cells were washed and lysed using buffer containing 1% Triton X-100, 0.1% deoxycholate and 0.1% SDS. Radioactivity in the lysate was measured in Packard Top count after addition of liquid scintillant. Concentration response curves were plotted as a % of maximal response obtained in the absence of test antagonist. IC50 value was calculated from concentration response curve by nonlinear regression analysis using GraphPad PRISM software.

T1 sequence (O75762 whole entry): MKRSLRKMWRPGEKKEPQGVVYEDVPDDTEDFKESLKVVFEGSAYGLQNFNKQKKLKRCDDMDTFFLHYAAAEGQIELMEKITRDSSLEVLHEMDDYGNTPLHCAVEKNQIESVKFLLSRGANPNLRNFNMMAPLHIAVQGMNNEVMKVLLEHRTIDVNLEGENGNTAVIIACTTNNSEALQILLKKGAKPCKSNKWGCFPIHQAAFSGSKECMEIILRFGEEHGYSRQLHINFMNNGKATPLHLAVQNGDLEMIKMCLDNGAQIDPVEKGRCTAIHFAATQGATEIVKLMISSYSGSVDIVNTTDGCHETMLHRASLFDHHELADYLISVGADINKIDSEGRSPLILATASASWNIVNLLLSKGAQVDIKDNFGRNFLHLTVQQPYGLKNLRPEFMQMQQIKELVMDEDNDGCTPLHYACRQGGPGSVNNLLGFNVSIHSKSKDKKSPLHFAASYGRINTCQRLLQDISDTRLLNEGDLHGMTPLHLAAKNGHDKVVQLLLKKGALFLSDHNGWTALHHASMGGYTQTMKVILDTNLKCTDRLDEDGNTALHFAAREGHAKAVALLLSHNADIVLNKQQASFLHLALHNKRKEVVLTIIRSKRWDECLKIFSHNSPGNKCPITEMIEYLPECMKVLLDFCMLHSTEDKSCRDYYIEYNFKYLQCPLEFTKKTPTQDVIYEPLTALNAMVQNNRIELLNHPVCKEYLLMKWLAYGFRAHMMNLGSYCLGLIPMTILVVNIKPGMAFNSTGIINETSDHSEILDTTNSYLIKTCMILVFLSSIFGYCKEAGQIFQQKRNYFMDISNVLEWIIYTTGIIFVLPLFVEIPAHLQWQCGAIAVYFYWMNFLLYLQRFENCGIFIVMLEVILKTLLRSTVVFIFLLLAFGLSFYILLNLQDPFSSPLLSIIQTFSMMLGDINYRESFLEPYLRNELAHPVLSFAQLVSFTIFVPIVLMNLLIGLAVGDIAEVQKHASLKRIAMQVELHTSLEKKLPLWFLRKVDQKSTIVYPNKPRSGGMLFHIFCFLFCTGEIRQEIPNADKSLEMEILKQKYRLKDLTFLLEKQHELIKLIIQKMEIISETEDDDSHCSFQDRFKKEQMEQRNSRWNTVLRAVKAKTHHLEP

inhibition at 1 µM	inhibition at 10 µM	IC50	Structure (SMILES)
45%	71.5%		Cn1nc2c(c1CC(=O)Nc1nc3cc(OC(F)(F)F)ccc3s1)c(=O)n(C)c(=O)n2C [Example 66, N-[5-(Trifluoromethoxy)-1,3-benzothiazol-2-yl]-2-(2,5,7-trimethyl-4,6-dioxo-4,5,6,7-tetrahydro-2H-pyrazolo[3,4-d]pyrimidin-3-yl)acetamide]
99%	99.5%	< 50 nM	Cn1nc2c(c1CC(=O)Nc1nc(-c3ccc(C(F)(F)F)cc3)cs1)c(=O)n(C)c(=O)n2C [Example 47, N-{4-[4-(Trifluoromethyl)phenyl]-1,3-thiazol-2-yl}-2-(2,5,7-trimethyl-4,6-dioxo-4,5,6,7-tetrahydro-2H-pyrazolo[3,4-d]pyrimidin-3-yl)acetamide]
52.9%	95.4%		Cn1c(=O)c2c(c(Br)cn2CC(=O)Nc2nc(-c3ccc(C(F)(F)F)c(F)c3)cs2)n(C)c1=O [Example 37, 2-(7-Bromo-1,3-dimethyl-2,4-dioxo-1,2,3,4-tetrahydro-5H-pyrrolo[3,2-d]pyrimidin-5-yl)-N-{4-[3-fluoro-4-(trifluoromethyl)phenyl]-1,3-thiazol-2-yl}acetamide]
60.7%	91.3%		Cn1c(=O)c2c(ccn2CC(=O)Nc2nc(-c3ccc(F)c(C(F)(F)F)c3F)cs2)n(C)c1=O [Example 9, 2-(1,3-Dimethyl-2,4-dioxo-1,2,3,4-tetrahydro-5H-pyrrolo[3,2-d]pyrimidin-5-yl)-N-{4-[2,4-difluorophenyl-3-trifluoromethyl]-1,3-thiazol-2-yl}acetamide]
35.4%	79.5%		Cn1c(=O)c2c(ccn2CC(=O)Nc2nc(-c3ccc(F)c(C(F)(F)F)c3)cs2)n(C)c1=O [Example 2, 2-(1,3-Dimethyl-2,4-dioxo-1,2,3,4-tetrahydro-5H-pyrrolo[3,2-d]pyrimidin-5-yl)-N-{4-[4-fluoro-3-(trifluoromethyl)phenyl]-1,3-thiazol-2-yl}acetamide]
100%	99.7%	< 50 nM	Cn1c(=O)c2c(cnn2CC(=O)Nc2nc(-c3cc(F)c(OCC(C)(C)C)c(F)c3)cs2)n(C)c1=O [Example 78, N-{4-[4-(2,2-Dimethylpropoxy)-3,5-difluorophenyl]-1,3-thiazol-2-yl}-2-(4,6-dimethyl-5,7-dioxo-4,5,6,7-tetrahydro-1H-pyrazolo[4,3-d]pyrimidin-1-yl)acetamide]
95.3%	98.3%	< 50 nM	Cc1cc2c(c(=O)n(C)c(=O)n2C)n1CC(=O)Nc1nc(-c2cc(F)c(OCC(F)(F)F)c(F)c2)cs1 [Example 26, N-[4-(3,5-Difluoro-4-(2,2,2-trifluoroethoxy)phenyl)-1,3-thiazol-2-yl]-2-(1,3,6-trimethyl-2,4-dioxo-1,2,3,4-tetrahydro-5H-pyrrolo[3,2-d]pyrimidin-5-yl)acetamide]
100%	100%	< 50 nM	Cn1c(=O)c2c(cnn2CC(=O)Nc2nc(-c3cc(Cl)c(OCC(C)(C)C)c(Cl)c3)cs2)n(C)c1=O [Example 79, N-{4-[3,5-Dichloro-4-(2,2-dimethylpropoxy)phenyl]-1,3-thiazol-2-yl}-2-(4,6-dimethyl-5,7-dioxo-4,5,6,7-tetrahydro-1H-pyrazolo[4,3-d]pyrimidin-1-yl)acetamide]
100%	100%	< 50 nM	Cn1c(=O)c2c(cnn2CC(=O)Nc2nc(-c3cc(F)c(OCC(C)(C)C)c(Cl)c3)cs2)n(C)c1=O [Example 80, N-{4-[3-Chloro-4-(2,2-dimethylpropoxy)-5-fluorophenyl]-1,3-thiazol-2-yl}-2-(4,6-dimethyl-5,7-dioxo-4,5,6,7-tetrahydro-1H-pyrazolo[4,3-d]pyrimidin-1-yl)acetamide]
43%	49.8%		Cn1nc2c(c1CC(=O)Nc1nc(-c3cc(C(F)(F)F)ccc3F)cs1)c(=O)n(C)c(=O)n2C [Example 57, N-{4-[2-Fluoro-5-(trifluoromethyl)phenyl]-1,3-thiazol-2-yl}-2-(2,5,7-trimethyl-4,6-dioxo-4,5,6,7-tetrahydro-2H-pyrazolo[3,4-d]pyrimidin-3-yl)acetamide]
57.5%	79.7%		Cn1nc2c(c1CC(=O)Nc1nc(-c3ccc(F)c(F)c3)cs1)c(=O)n(C)c(=O)n2C [Example 51, N-[4-(3,4-Difluorophenyl)-1,3-thiazol-2-yl]-2-(2,5,7-trimethyl-4,6-dioxo-4,5,6,7-tetrahydro-2H-pyrazolo[3,4-d]pyrimidin-3-yl)acetamide]
12.5%	24.6%		Cn1nc2c(c1CC(=O)Nc1cc(-c3ccc(Br)cc3)on1)c(=O)n(C)c(=O)n2C [Example 65, N-[5-(4-Bromophenyl)isoxazol-3-yl]-2-(2,5,7-trimethyl-4,6-dioxo-4,5,6,7-tetrahydro-2H-pyrazolo[3,4-d]pyrimidin-3-yl)acetamide]
81.4%	99.4%	< 50 nM	Cc1cc2c(c(=O)n(C)c(=O)n2C)n1CC(=O)Nc1nc(-c2ccc(C(F)(F)F)c(F)c2)cs1 [Example 22, N-[4-(3-Fluoro-4-trifluoromethylphenyl)-1,3-thiazol-2-yl]-2-(1,3,6-trimethyl-2,4-dioxo-1,2,3,4-tetrahydro-5H-pyrrolo[3,2-d]pyrimidin-5-yl)acetamide]
93.4%	97.2%	< 50 nM	Cn1nc2c(c1CC(=O)Nc1nc(-c3ccc(F)c(OC(F)(F)F)c3)cs1)c(=O)n(C)c(=O)n2C [Example 60, N-{4-[4-Fluoro-3-(trifluoromethoxy)phenyl]-1,3-thiazol-2-yl}-2-(2,5,7-trimethyl-4,6-dioxo-4,5,6,7-tetrahydro-2H-pyrazolo[3,4-d]pyrimidin-3-yl)acetamide]
95%	97.1%	< 50 nM	Cn1c(=O)c2c(ccn2CC(=O)Nc2nc(-c3cc(F)c(OCC(F)(F)F)c(Cl)c3)cs2)n(C)c1=O [Example 16, N-{4-[3-Chloro-5-fluoro-4-(2,2,2-trifluoroethoxy)phenyl]-1,3-thiazol-2-yl}-2-(1,3-dimethyl-2,4-dioxo-1,2,3,4-tetrahydro-5H-pyrrolo[3,2-d]pyrimidin-5-yl)acetamide]
93.9%	99.4%	< 50 nM	Cc1cc2c(c(=O)n(C)c(=O)n2C)n1CC(=O)Nc1nc(-c2cc(F)c(OCC(C)(C)C)c(F)c2)cs1 [Example 24, N1-{4-[3,5-Difluoro-4-(2,2-dimethylpropoxy)phenyl]-1,3-thiazol-2-yl}-2-(1,3,6-trimethyl-2,4-dioxo-1,2,3,4-tetrahydro-5H-pyrrolo[3,2-d]pyrimidin-5-yl)acetamide]
27.1%	77%		Cn1c(=O)c2c(CC(=O)Nc3nc(-c4cc(F)c(OCC(F)(F)F)c(F)c4)cs3)cn(C)c2n(C)c1=O [Example 44, N-{4-[3,5-Difluoro-4-(2,2,2-trifluoroethoxy)phenyl]-1,3-thiazol-2-yl}-2-(1,3,7-trimethyl-2,4-dioxo-2,3,4,7-tetrahydro-1H-pyrrolo[2,3-d]pyrimidin-5-yl)acetamide]
93.5%	98.9%	50 to 100 nM	CC(C)Cc1ccc(-c2csc(NC(=O)Cc3c4c(=O)n(C)c(=O)n(C)c4nn3C)n2)cc1 [Example 45, N-[4-(4-Isobutylphenyl)-1,3-thiazol-2-yl]-2-(2,5,7-trimethyl-4,6-dioxo-4,5,6,7-tetrahydro-2H-pyrazolo[3,4-d]pyrimidin-3-yl)acetamide]
52.3%	88.5%		Cn1nc2c(c1CC(=O)Nc1nc(-c3cccc(OC(F)(F)F)c3)cs1)c(=O)n(C)c(=O)n2C [Example 49, N-{4-[3-(Trifluoromethoxy)phenyl]-1,3-thiazol-2-yl}-2-(2,5,7-trimethyl-4,6-dioxo-4,5,6,7-tetrahydro-2H-pyrazolo[3,4-d]pyrimidin-3-yl)acetamide]
41.1%	63.1%		Cn1c(=O)c2c(CC(=O)Nc3nc(-c4cc(F)c(OCC(C)(C)C)c(F)c4)cs3)cn(C)c2n(C)c1=O [Example 42, N-[4-(3,5-Difluoro-4-(2,2-dimethylpropoxy)phenyl)-1,3-thiazol-2-yl]-2-(1,3,7-trimethyl-2,4-dioxo-2,3,4,7-tetrahydro-1H-pyrrolo[2,3-d]pyrimidin-5-yl)acetamide]

Structure (SMILES)	inhibition at 1 µM	inhibition at 10 µM	IC50
CC(C)CCOc1c(F)cc(-c2csc(NC(=O)Cn3ccc4c3c(=O)n(C)c(=O)n4C)n2)cc1F [Example 7, N-{4-[3,5-Difluoro-4-(3-methylbutoxy)phenyl]-1,3-thiazol-2-yl}-2-(1,3-dimethyl-2,4-dioxo-1,2,3,4-tetrahydro-5H-pyrrolo[3,2-d]pyrimidin-5-yl)acetamide]	35.5%	37.3%	
